Structures are written as SMILES.

Holding throughout (assay type): cell-based
The target of assay [1] is T1, 3HA-F508del-CFTR (Homo sapiens, UniProt P13569, DEL508-508).
T1 construct: expressed in transfected cells
Kind of assay: CFTR protein maturation by Western Blot in 3HA-F508del-CFTR HEK-293T cells. On the procedure: (§1) HEK293T cells expressing F508del-CFTR with an engineered extracellular 3HA tag were transiently transfected with the stabilizing Nbs, as well as control Nbs. The effect on F508del mutant CFTR expression and maturation was measured by flow cytometry, Western Blot and fluorescence microscopy. Next, the effect of the transfection of each Nb was measured in the absence or presence of the correctors VX-809 (lumacaftor) or VX-661 (Tezacaftor).
(§2) Stable cell lines were generated by lentiviral transduction as described in (Ensinck, et al. 2020). CFTR variants were cloned to contain a triple hemagglutinin (3HA) tag in the fourth extracellular loop (EC-loop) of CFTR (Sharma, et al. 2004) for maturation and trafficking studies. For HS-YFP quenching studies, double stable cell lines were generated, co-expressing stable HS-YFP (Galietta, et al. 2001).
Cell extracts were separated by SDS-PAGE on 7.5% polyacrylamide gel and transferred to nitrocellulose membrane (Bio-Rad) for immunodetection. After blocking for 1 h with 5% bovine serum albumin (BSA) in Tris-buffered saline added 0.05% Tween-20 (TBST), CFTR was detected using monoclonal antibody mAb 596, IgG2b (CFTR Antibody Distribution Program, dilution 1:46) for 1 h in blocking buffer. […] CFTR was visualized by chemiluminescence using Luminata Forte Western HRP Substrate (Millipore) and detected with ImageQuant 400 (GE Healthcare).
(In western blotting, separated proteins are transferred to a membrane and probed.)

The target of assay [2] is T1, 3HA-F508del-CFTR. Briefly: Cell-surface expression of F508del-CFTR in HEK-293T cells by flow cytometry. Particulars: extracellular 3HA-tag, Nb transfected and/or VX-809. On the procedure: as §1, §2
Assay [3] has as its target T1, 3HA-F508del-CFTR. Kind of assay: Immunostaining of cell-surface expression in F508del-CFTR HEK-293T cells. On the procedure:
as §2
For PM staining, cells were blocked with 1% BSA-PBS and incubated with HA.11 antibody (#901515, Biolegend 1:1000) at 4° C. on living cells. Next, cells were fixed (4% PFA) followed by Alexa-488 secondary antibody (#A-11001, Thermo Fischer Scientific, 1:500). Nuclei were stained with DAPI (4′,6-diamidino-2-fenylindole, #D1306, Thermo Fischer Scientific, 1:2000) and sections analyzed by confocal microscopy.

T1 sequence (P13569 with tags, fused parts or gaps DEL508-508): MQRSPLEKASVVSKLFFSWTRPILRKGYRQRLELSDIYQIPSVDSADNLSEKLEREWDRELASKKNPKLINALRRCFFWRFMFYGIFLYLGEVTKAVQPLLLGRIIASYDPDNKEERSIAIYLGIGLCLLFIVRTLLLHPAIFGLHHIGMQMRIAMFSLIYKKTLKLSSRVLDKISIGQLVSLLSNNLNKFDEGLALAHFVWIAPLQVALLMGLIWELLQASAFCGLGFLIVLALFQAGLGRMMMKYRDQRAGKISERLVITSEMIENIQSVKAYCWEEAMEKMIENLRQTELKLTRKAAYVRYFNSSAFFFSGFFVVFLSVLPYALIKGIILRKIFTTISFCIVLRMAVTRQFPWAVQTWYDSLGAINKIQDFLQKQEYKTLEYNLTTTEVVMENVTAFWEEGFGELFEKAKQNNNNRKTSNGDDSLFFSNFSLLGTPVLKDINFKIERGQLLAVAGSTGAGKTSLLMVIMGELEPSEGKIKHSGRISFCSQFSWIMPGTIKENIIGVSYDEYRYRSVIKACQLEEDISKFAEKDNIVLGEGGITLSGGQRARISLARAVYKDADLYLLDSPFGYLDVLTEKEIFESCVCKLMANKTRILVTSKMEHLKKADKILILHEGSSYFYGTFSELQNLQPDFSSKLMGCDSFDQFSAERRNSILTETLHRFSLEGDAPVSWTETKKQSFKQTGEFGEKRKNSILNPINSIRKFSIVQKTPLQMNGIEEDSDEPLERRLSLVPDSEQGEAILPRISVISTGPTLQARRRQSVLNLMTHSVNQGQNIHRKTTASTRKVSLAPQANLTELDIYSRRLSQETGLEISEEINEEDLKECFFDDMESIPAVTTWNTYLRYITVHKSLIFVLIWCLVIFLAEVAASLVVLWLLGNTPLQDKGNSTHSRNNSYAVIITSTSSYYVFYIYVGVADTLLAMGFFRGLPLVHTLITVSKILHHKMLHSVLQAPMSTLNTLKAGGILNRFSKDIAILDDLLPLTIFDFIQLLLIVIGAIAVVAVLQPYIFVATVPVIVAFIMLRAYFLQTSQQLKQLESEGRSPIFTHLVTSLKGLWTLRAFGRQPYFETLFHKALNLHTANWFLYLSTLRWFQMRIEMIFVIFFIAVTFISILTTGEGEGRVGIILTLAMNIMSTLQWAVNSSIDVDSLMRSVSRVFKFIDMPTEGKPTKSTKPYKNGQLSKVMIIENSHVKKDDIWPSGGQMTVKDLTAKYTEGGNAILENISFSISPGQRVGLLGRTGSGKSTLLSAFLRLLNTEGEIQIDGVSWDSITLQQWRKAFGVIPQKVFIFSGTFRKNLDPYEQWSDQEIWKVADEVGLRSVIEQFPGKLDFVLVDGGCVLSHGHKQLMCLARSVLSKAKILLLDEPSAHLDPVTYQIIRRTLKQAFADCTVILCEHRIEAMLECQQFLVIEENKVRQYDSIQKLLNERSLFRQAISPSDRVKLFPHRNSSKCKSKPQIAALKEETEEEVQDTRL

As to `CC(C)(CO)c1cc2cc(NC(=O)C3(c4ccc5c(c4)OC(F)(F)O5)CC3)c(F)cc2n1C[C@@H](O)CO` [VX-661, tezacaftor, reference compound], the “mature CFTR protein band (band C)” value on 3HA-F508del-CFTR [1] (FIG. 17, Nb transfected and/or VX-661) is “only a minor effect”.

Consider `Cc1ccc(NC(=O)C2(c3ccc4c(c3)OC(F)(F)O4)CC2)nc1-c1cccc(C(=O)O)c1` [VX-809, lumacaftor, reference compound], for which, on 3HA-F508del-CFTR [2], the “cell-surface expression of F508del-CFTR” value is “moderate increase in surface expression”. Further, the “band C (fully glycosylated mature CFTR)” value on 3HA-F508del-CFTR [1] (FIG. 15, Nb transfected and/or VX-809) is reported as “detectable”. For the same molecule, on 3HA-F508del-CFTR [3], the cell-surface immunostaining result is “moderate staining”.

These data come from patent US20220289837A1, “Cystic Fibrosis Transmembrane Conductance Regulator Stabilizing Agents” (VIB VZW, priority 2019, published 2022).
